What all share (format): functional
Assay [1] relates to Mythimna separata. Description: Insecticidal activity against fourth instar larvae of Mythimna separata (Oriental armyworm) in compound treated corn leaves assessed as mortality at 0.2 mg/kg by foliar application.
In assay [2] the test system is Mythimna separata. Description: Insecticidal activity against fourth instar larvae of Mythimna separata (Oriental armyworm) in compound treated corn leaves assessed as mortality at 5 mg/kg by foliar application.
The subject of assay [3] is Mythimna separata. Description: Insecticidal activity against fourth instar larvae of Mythimna separata (Oriental armyworm) in compound treated corn leaves assessed as mortality at 25 mg/kg by foliar application.
For assay [4], the system named is Mythimna separata. Description: Insecticidal activity against fourth instar larvae of Mythimna separata (Oriental armyworm) in compound treated corn leaves assessed as mortality at 500 mg/kg by foliar application.
Assay [5] has as its system Mythimna separata. Description: Insecticidal activity against fourth instar larvae of Mythimna separata (Oriental armyworm) in compound treated corn leaves assessed as mortality at 0.5 mg/kg by foliar application.
For assay [6], the system named is Mythimna separata. Description: Insecticidal activity against fourth instar larvae of Mythimna separata (Oriental armyworm) in compound treated corn leaves assessed as mortality at 10 mg/kg by foliar application.
Assay [7] deals with Mythimna separata. Description: Insecticidal activity against fourth instar larvae of Mythimna separata (Oriental armyworm) in compound treated corn leaves assessed as mortality at 100 mg/kg by foliar application.
Assay [8] concerns Mythimna separata. Nature of the assay: Insecticidal activity against fourth instar larvae of Mythimna separata (Oriental armyworm) in compound treated corn leaves assessed as mortality at 1 mg/kg by foliar application.
Assay [9] has as its system Mythimna separata. Description: Insecticidal activity against fourth instar larvae of Mythimna separata (Oriental armyworm) in compound treated corn leaves assessed as mortality at 50 mg/kg by foliar application.
Assay [10] deals with Mythimna separata. Nature of the assay: Insecticidal activity against fourth instar larvae of Mythimna separata (Oriental armyworm) in compound treated corn leaves assessed as mortality at 200 mg/kg by foliar application.
Assay [11] relates to Mythimna separata. Description: Insecticidal activity against fourth instar larvae of Mythimna separata (Oriental armyworm) in compound treated corn leaves assessed as mortality at 0.1 mg/kg by foliar application.

Drawing on ChEMBL document CHEMBL3046681, “Synthesis and insecticidal evaluation of propesticides of benzoylphenylureas” (2005), this text covers mortality for eleven molecules.

As for `CC(C)(C)OC(=O)N(C(=O)NC(=O)c1c(F)cccc1F)c1ccc(C(F)(F)F)cc1`, the mortality at 0.2 mg/kg in the assay with Mythimna separata [1] came out at 0%. Moreover, in the assay with Mythimna separata [2], the mortality at 5 mg/kg came to 75%. Further, the mortality at 25 mg/kg in the assay on Mythimna separata [3] was 100%. Further, in the assay with Mythimna separata [4], the mortality at 500 mg/kg is 100%. The mortality at 0.5 mg/kg in the assay with Mythimna separata [5] was determined as 0%. In addition, in the assay on Mythimna separata [6], the mortality at 10 mg/kg stood at 100%. Moreover, in the assay on Mythimna separata [7], the mortality at 100 mg/kg came out at 100%. In the assay on Mythimna separata [8], the mortality at 1 mg/kg was found to be 0%. Besides, the mortality at 50 mg/kg in the assay on Mythimna separata [9] came to 100%. In addition, the mortality at 200 mg/kg with Mythimna separata [10] turned out to be 100%.
On to `CCOC(=O)N(C(=O)NC(=O)c1c(F)cccc1F)c1ccc(Cl)cc1`, for which, in the assay on Mythimna separata [1], the mortality at 0.2 mg/kg came to 0%. Moreover, in the assay on Mythimna separata [2], the mortality at 5 mg/kg worked out at 0%. Moreover, the mortality at 25 mg/kg with Mythimna separata [3] was found to be 100%. Further, the mortality at 500 mg/kg in the assay with Mythimna separata [4] came out at 100%. Further, the mortality at 0.5 mg/kg with Mythimna separata [5] amounted to 0%. The mortality at 10 mg/kg with Mythimna separata [6] came out at 0%. In the assay with Mythimna separata [7], the mortality at 100 mg/kg was found to be 100%. Also, the mortality at 1 mg/kg in the assay on Mythimna separata [8] turned out to be 0%. The mortality at 50 mg/kg with Mythimna separata [9] was determined as 100%. Moreover, the mortality at 200 mg/kg in the assay with Mythimna separata [10] was 100%.
Take `CN(SN(C(=O)NC(=O)c1c(F)cccc1F)c1ccc(Cl)cc1)C(=O)OCc1ccccc1`: in the assay on Mythimna separata [1], the mortality at 0.2 mg/kg is 0%. The mortality at 5 mg/kg in the assay with Mythimna separata [2] was 100%. Moreover, in the assay on Mythimna separata [3], the mortality at 25 mg/kg came out at 100%. Also, the mortality at 500 mg/kg with Mythimna separata [4] amounted to 100%. Besides, the mortality at 0.5 mg/kg in the assay with Mythimna separata [5] was found to be 55%. Further, the mortality at 10 mg/kg with Mythimna separata [6] is 100%. Besides, in the assay with Mythimna separata [11], the mortality at 0.1 mg/kg worked out at 0%. Moreover, the mortality at 100 mg/kg in the assay with Mythimna separata [7] came out at 100%. Moreover, the mortality at 1 mg/kg with Mythimna separata [8] was 85%. Moreover, in the assay with Mythimna separata [9], the mortality at 50 mg/kg is 100%. Moreover, the mortality at 200 mg/kg in the assay on Mythimna separata [10] was found to be 100%.
As for `O=C(NC(=O)N(C(=O)OCc1ccccc1)c1ccc(Cl)cc1)c1c(F)cccc1F`, the mortality at 0.2 mg/kg in the assay on Mythimna separata [1] was 0%. Also, the mortality at 5 mg/kg in the assay on Mythimna separata [2] came to 0%. Moreover, the mortality at 25 mg/kg in the assay with Mythimna separata [3] was determined as 0%. The mortality at 500 mg/kg in the assay with Mythimna separata [4] worked out at 100%. The mortality at 0.5 mg/kg in the assay with Mythimna separata [5] was 0%. For the same molecule, the mortality at 10 mg/kg in the assay on Mythimna separata [6] is 0%. Besides, the mortality at 100 mg/kg with Mythimna separata [7] worked out at 70%. Further, the mortality at 1 mg/kg in the assay on Mythimna separata [8] came out at 0%. In addition, the mortality at 50 mg/kg in the assay with Mythimna separata [9] worked out at 0%. The mortality at 200 mg/kg with Mythimna separata [10] worked out at 100%.
On to `CCOC(=O)N(C)SN(C(=O)NC(=O)c1c(F)cccc1F)c1ccc(Cl)cc1`, for which the mortality at 0.2 mg/kg in the assay on Mythimna separata [1] is 5%. The mortality at 5 mg/kg in the assay on Mythimna separata [2] is 100%. For the same molecule, the mortality at 25 mg/kg in the assay with Mythimna separata [3] came out at 100%. Also, the mortality at 500 mg/kg in the assay with Mythimna separata [4] is 100%. Further, the mortality at 10 mg/kg with Mythimna separata [6] amounted to 100%. For the same molecule, the mortality at 0.1 mg/kg in the assay on Mythimna separata [11] came to 0%. Also, the mortality at 100 mg/kg in the assay with Mythimna separata [7] was found to be 100%. In the assay on Mythimna separata [8], the mortality at 1 mg/kg worked out at 20%. For the same molecule, in the assay with Mythimna separata [9], the mortality at 50 mg/kg stood at 100%. The mortality at 200 mg/kg in the assay with Mythimna separata [10] came to 100%.
Turning to `CCOC(=O)N(C(=O)NC(=O)c1c(F)cccc1F)c1ccc(C(F)(F)F)cc1`, the mortality at 0.2 mg/kg in the assay with Mythimna separata [1] amounted to 0%. Also, the mortality at 5 mg/kg with Mythimna separata [2] is 0%. Moreover, in the assay with Mythimna separata [3], the mortality at 25 mg/kg stood at 5%. For the same molecule, in the assay with Mythimna separata [4], the mortality at 500 mg/kg came to 100%. The mortality at 0.5 mg/kg in the assay with Mythimna separata [5] came out at 0%. Further, the mortality at 10 mg/kg with Mythimna separata [6] turned out to be 0%. The mortality at 100 mg/kg in the assay with Mythimna separata [7] is 100%. For the same molecule, in the assay with Mythimna separata [8], the mortality at 1 mg/kg was 0%. Besides, the mortality at 50 mg/kg in the assay with Mythimna separata [9] is 100%. The mortality at 200 mg/kg with Mythimna separata [10] was found to be 100%.
For `O=C(NC(=O)c1c(F)cccc1F)Nc1ccc(Cl)cc1` [DIFLUBENZURON], in the assay on Mythimna separata [1], the mortality at 0.2 mg/kg is 45%. In the assay on Mythimna separata [2], the mortality at 5 mg/kg is 100%. In the assay with Mythimna separata [3], the mortality at 25 mg/kg is 100%. Also, the mortality at 500 mg/kg with Mythimna separata [4] is 100%. Also, the mortality at 0.5 mg/kg with Mythimna separata [5] is 100%. Besides, the mortality at 10 mg/kg with Mythimna separata [6] amounted to 100%. For the same molecule, in the assay with Mythimna separata [11], the mortality at 0.1 mg/kg amounted to 0%. For the same molecule, the mortality at 100 mg/kg in the assay on Mythimna separata [7] worked out at 100%. Also, the mortality at 1 mg/kg in the assay with Mythimna separata [8] came out at 100%. Also, in the assay with Mythimna separata [9], the mortality at 50 mg/kg came to 100%. Further, the mortality at 200 mg/kg in the assay with Mythimna separata [10] is 100%.
Turning to `CN(SN(C(=O)NC(=O)c1c(F)cccc1F)c1ccc(C(F)(F)F)cc1)C(=O)OC(C)(C)C`, the mortality at 0.2 mg/kg with Mythimna separata [1] was determined as 35%. For the same molecule, in the assay on Mythimna separata [2], the mortality at 5 mg/kg came out at 100%. In the assay on Mythimna separata [3], the mortality at 25 mg/kg is 100%. For the same molecule, the mortality at 500 mg/kg in the assay with Mythimna separata [4] is 100%. Besides, the mortality at 0.5 mg/kg in the assay with Mythimna separata [5] turned out to be 100%. For the same molecule, the mortality at 10 mg/kg in the assay on Mythimna separata [6] came out at 100%. The mortality at 0.1 mg/kg with Mythimna separata [11] amounted to 0%. Also, the mortality at 100 mg/kg in the assay with Mythimna separata [7] was 100%. Further, in the assay on Mythimna separata [8], the mortality at 1 mg/kg came out at 100%. Further, in the assay with Mythimna separata [9], the mortality at 50 mg/kg worked out at 100%. Moreover, the mortality at 200 mg/kg with Mythimna separata [10] is 100%.
Consider `CCOC(=O)N(C)SN(C(=O)NC(=O)c1c(F)cccc1F)c1ccc(C(F)(F)F)cc1`, for which the mortality at 0.2 mg/kg in the assay on Mythimna separata [1] is 85%. In addition, in the assay with Mythimna separata [2], the mortality at 5 mg/kg was 100%. In addition, the mortality at 25 mg/kg in the assay with Mythimna separata [3] amounted to 100%. For the same molecule, the mortality at 500 mg/kg in the assay on Mythimna separata [4] was found to be 100%. The mortality at 0.5 mg/kg with Mythimna separata [5] turned out to be 95%. The mortality at 10 mg/kg in the assay on Mythimna separata [6] stood at 100%. In addition, the mortality at 0.1 mg/kg with Mythimna separata [11] was 0%. The mortality at 100 mg/kg in the assay on Mythimna separata [7] was 100%. The mortality at 1 mg/kg in the assay with Mythimna separata [8] was 100%. In the assay on Mythimna separata [9], the mortality at 50 mg/kg is 100%. For the same molecule, in the assay with Mythimna separata [10], the mortality at 200 mg/kg is 100%.
Consider `O=C(NC(=O)N(C(=O)OCc1ccccc1)c1ccc(C(F)(F)F)cc1)c1c(F)cccc1F`, for which the mortality at 0.2 mg/kg with Mythimna separata [1] came to 0%. In addition, the mortality at 5 mg/kg with Mythimna separata [2] worked out at 0%. Moreover, the mortality at 25 mg/kg in the assay on Mythimna separata [3] was 0%. For the same molecule, the mortality at 500 mg/kg with Mythimna separata [4] is 100%. The mortality at 0.5 mg/kg in the assay with Mythimna separata [5] was determined as 0%. In addition, the mortality at 10 mg/kg in the assay on Mythimna separata [6] was determined as 0%. In addition, in the assay on Mythimna separata [7], the mortality at 100 mg/kg is 0%. The mortality at 1 mg/kg with Mythimna separata [8] stood at 0%. Also, the mortality at 50 mg/kg in the assay with Mythimna separata [9] turned out to be 0%. Moreover, the mortality at 200 mg/kg in the assay with Mythimna separata [10] came out at 30%.
Regarding `CC(C)(C)OC(=O)N(C(=O)NC(=O)c1c(F)cccc1F)c1ccc(Cl)cc1`, the mortality at 0.2 mg/kg in the assay on Mythimna separata [1] was 0%. Also, in the assay on Mythimna separata [2], the mortality at 5 mg/kg worked out at 95%. In the assay with Mythimna separata [3], the mortality at 25 mg/kg came to 100%. In addition, the mortality at 500 mg/kg in the assay with Mythimna separata [4] came out at 100%. In addition, in the assay with Mythimna separata [5], the mortality at 0.5 mg/kg turned out to be 0%. Besides, the mortality at 10 mg/kg in the assay on Mythimna separata [6] is 100%. Moreover, in the assay on Mythimna separata [7], the mortality at 100 mg/kg amounted to 100%. The mortality at 1 mg/kg in the assay on Mythimna separata [8] is 5%. For the same molecule, the mortality at 50 mg/kg with Mythimna separata [9] stood at 100%. Also, in the assay on Mythimna separata [10], the mortality at 200 mg/kg turned out to be 100%.

For orientation: mortality means the percentage killed.
